Results reported in patent publication US10195189B2, “2-phenethenyltetrahydro isoquinolines useful as anti-HIV compounds” (priority 2014, dated 2019).

System: HIV-1 NL4-3 viral clone expressing Renilla luciferase
Assay: microbe, parasite or virus in culture
Type: cell-based
Conditions: Human immunodeficiency virus 1, NL43, MT2, 96 h
Description: Protocol for MT-2 Spread Assay
The present assay was used to screen candidate antiviral compounds by quantification of virus spread and production over several rounds of infection in vitro. MT-2, a HIV-1 permissive human T-cell line, was seeded in microtiter plates and was simultaneously treated with serially diluted compound and inoculated with a HIV-1 NL4-3 viral clone engineered to express Renilla luciferase in place of Net Following treatment, the culture was incubated for 96 hours. After the incubation, media was collected and used to estimate relative infectivity on the indicator cell line, TZM-bl. Additionally, viral spread was quantified by measuring luciferase activity via a commercially available luciferase substrate. In parallel, MT-2 cells were seeded and inoculated with mock virus in the presence of serially diluted compound. Compound toxicity was quantified 96 hours after treatment with AlamarBlue.
MT-2 (NIH Aids reagent program 237) cells were grown and maintained in an incubator at 37° C. with 5% CO2 using a basal medium of RPMI-1640 supplemented with 10% FBS. Cells were seeded in 100 μl at 2×10^4 cells/well in white walled 96-well microtiter plates. Candidate compounds were 3-fold serially diluted in the appropriate solvent. Solvent without compound was used as a no drug reference. Cells were inoculated at a multiplicity of 0.027 with an HIV-1 NL4-3 virus stock engineered to express Renilla luciferase in place of Net Diluted virus stock was first added to serially diluted compound. Compound and virus were delivered to cells in an equal volume (100 μl) and treated cultures were returned to the incubator for 96 hours. In parallel, plates for cytotoxicity estimates were prepared in the same way except cells were plated in clear walled 96-well microtiter plates and were mock infected.
At 96 hours post infection, 100 μl virus containing culture supernatant was collected from the treated and infected cultures and serially diluted in DMEM supplemented with 10% FBS, 1% sodium pyruvate, and 20 μg/ml DEAE dextran. One day prior, TZM-bl (ATCC PTA-5659) were cultured in basal medium of DMEM supplemented with 10% FBS and 1% sodium pyruvate and seeded at 7.5×10^3 cells/well in black walled 96-well microtiter plates. Diluted virus containing culture supernatant was transferred to TZM-bl cultures and incubated for 48 hours at 37° C. with 5% CO2. Infected TZM-bl cultures were fixed for 5 minutes with a 1% formaldehyde/0.2% gluteraldehyde/PBS solution then washed three times with PBS. Fixed cultures were incubated at 37° C. for 25 minutes with a 200 μg/ml MUG (4-Methylumbelliferyl β-D-[…])/DMEM solution. The reaction was stopped with an equal volume of 1M sodium carbonate and read at 360, 449 nm on fluorescence plate reader (Biotek).
At 96 hours post infection, 100 μl of culture supernatant was removed from the treated and infected cultures and EnduRen live cell substrate (Promega) was added at a final concentration 1.3 μg/ml. Cells were incubated for 1.5 hours at 37° C. with 5% CO2 then read on a luminescence plate reader (Biotek).
For all assays, data was imported into Accelrys Assay Explorer 3.3. In Assay Explorer, % inhibition (antiviral or cytotoxicity) was calculated using the solvent control as a reference by the following equation: 1−(SignalCompound/SignalReference). The % Inhibition and compound concentration data was fitted using the following 4-parameter logistic model (Assay Explorer model 42):
[formula] where X is compound concentration, Y is % inhibition, D is the maximum % Inhibition (constrained to 100%), C is IC50 value or inflection point, B is the hill slope, and A is the minimum % inhibition (constrained to 0%). The IC50 value is reported as the EC50 or CC50 depending on the assay endpoint. EC50 represents the effective concentration at which virus replication is inhibited by 50 percent. CC50 represents the concentration that results in the death of 50 percent of the host cells. […]

Compound	EC50 [nM]
COc1cc2c(cc1OCc1ccccc1)CCNC2/C=C/c1ccc(OC)c2ccoc12 (stereo not shown) [Example AO, 6-Benzyloxy-7-methoxy-1-[(E)-2-(4-methoxybenzofuran-7-yl)vinyl]-1,2,3,4-tetrahydroisoquinoline]	1130
COc1cc2c(cc1OCc1ccccc1)CCNC2c1cc(OCc2ccccc2)c(OC)cc1C (stereo not shown) [AY, 6-(Benzyloxy)-1-(5-(benzyloxy)-4-methoxy-2-methylphenyl)-7-methoxy-1,2,3,4-tetrahydroisoquinoline]	4880
COc1cc(C)c(/C=C/C2c3cc(OC)c(OCc4ccccc4)cc3CCN2C)cc1OCc1ccccc1 (stereo not shown) [Example E, 6-Benzyloxy-1-[(E)-2-(5-benzyloxy-4-methoxy-2-methyl-phenyl)vinyl]-7-methoxy-2-methyl-3,4-dihydro-1H-isoquinoline]	8470
COc1cc2c(cc1OCc1ccccc1)CCNC2/C=C/c1ccc(-c2ncco2)cc1 (stereo not shown) [ED, 2-[4-[(E)-2-(6-Benzyloxy-7-methoxy-1,2,3,4-tetrahydroisoquinolin-1-yl)vinyl]phenyl]oxazole]	580
COc1cc(C)c(/C=C/C2c3cc(OC)c(OCc4ccccc4)cc3CCN2C(=O)c2ccncc2)cc1OCc1ccccc1 (stereo not shown) [Example U, [6-benzyloxy-1-[(E)-2-(5-benzyloxy-4-methoxy-2-methyl-phenyl)vinyl]-7-methoxy-3,4-dihydro-1H-isoquinolin-2-yl]-(4-pyridyl)methanone]	870
COc1cc2c(cc1OCc1ccccc1)CCNC2/C=C/c1cc(OC(F)(F)F)ccc1C (stereo not shown) [BH, 6-Benzyloxy-7-methoxy-1-[(E)-2-[2-methyl-5-(trifluoromethoxy)phenyl]vinyl]-1,2,3,4-tetrahydroisoquinoline]	1930
COc1cc(F)c(/C=C/C2NCCc3cc(OCc4ccccc4)c(OC)cc32)cc1OC (stereo not shown) [BP, 6-Benzyloxy-1-[(E)-2-(2-fluoro-4,5-dimethoxy-phenyl)vinyl]-7-methoxy-1,2,3,4-tetrahydroisoquinoline]	2030
COc1cc(OC)c(/C=C/C2NCCc3cc(OCc4ccccc4)c(OC)cc32)cc1C (stereo not shown) [EH, 6-Benzyloxy-1-[(E)-2-(2,4-dimethoxy-5-methyl-phenyl)vinyl]-7-methoxy-1,2,3,4-tetrahydroisoquinolin]	66
COc1cc2c(cc1OCc1ccccc1)CCNC2/C=C/c1ccccc1 (stereo not shown) [BI, 6-Benzyloxy-7-methoxy-1-[(E)-styryl]-1,2,3,4-tetrahydroisoquinoline]	2200
COc1cc2c(cc1OCc1ccccc1)CCNC2/C=C/c1ccc(-n2ccnc2C)cc1 (stereo not shown) [DM, (E)-6-(benzyloxy)-7-methoxy-1-(4-(2-methyl-1H-imidazol-1-yl)styryl)-1,2,3,4-tetrahydroisoquinoline]	1520
COc1cc2c(cc1OCc1ccccc1)CCNC2/C=C/c1ccccc1C(F)(F)F (stereo not shown) [DA, (E)-6-(benzyloxy)-7-methoxy-1-(2-(trifluoromethyl)styryl)-1,2,3,4-tetrahydroisoquinoline]	2340
COc1cc2c(cc1OCc1ccccc1)CCNC2/C=C/c1ccc(-c2cncnc2)cc1 (stereo not shown) [DS, 6-(Benzyloxy)-7-methoxy-1-[(E)-2-[4-(pyrimidin-5-yl)phenyl]ethenyl]-1,2,3,4-tetrahydroisoquinoline]	116
COc1cc2c(cc1OCc1ccccc1)CCNC2/C=C/c1cc2c(cc1C)OCCO2 (stereo not shown) [BC, 6-Benzyloxy-7-methoxy-1-[(E)-2-(7-methyl-2,3-dihydro-1,4-benzodioxin-6-yl)vinyl]-1,2,3,4-tetrahydroisoquinoline]	27.1
COc1cc2c(cc1OCc1ccccc1)CCNC2/C=C/c1cc2ccccc2s1 (stereo not shown) [DU, 1-[(E)-2-(1-Benzothiophen-2-yl)ethenyl]-6-(benzyloxy)-7-methoxy-1,2,3,4-tetrahydroisoquinoline]	10100
COc1cc(/C=C/C2NCCc3cc(OCc4ccccc4)c(OC)cc32)ccn1 (stereo not shown) [AU, 6-benzyloxy-7-methoxy-1-[(E)-2-(2-methoxy-4-pyridyl)vinyl]-1,2,3,4-tetrahydroisoquinoline]	1650
COc1cc2c(cc1OCc1ccccc1)CCNC2/C=C/c1cscn1 (stereo not shown) [DR, 6-(Benzyloxy)-7-methoxy-1-[(E)-2-(1,3-thiazol-4-yl)ethenyl]-1,2,3,4-tetrahydroisoquinolin]	4820
COc1cc2c(cc1OCc1ccccc1)CCNC2/C=C/c1cc(C(C)C)c(OC)cc1C (stereo not shown) [BW, 6-Benzyloxy-1-[(E)-2-(5-isopropyl-4-methoxy-2-methyl-phenyl)vinyl]-7-methoxy-1,2,3,4-tetrahydroisoquinoline]	840
COc1cc2c(cc1OCc1ccccc1)CCNC2/C=C/c1c(C)ccc2c1OCCC2 (stereo not shown) [CC, 6-Benzyloxy-7-methoxy-1-[(E)-2-(7-methylchroman-8-yl)vinyl]-1,2,3,4-tetrahydroisoquinoline]	1180
COc1cc2c(cc1OCc1ccccc1)CCNC2/C=C/c1ccccc1C(=O)O (stereo not shown) [ES, 2-[(E)-2-(6-benzyloxy-7-methoxy-1,2,3,4-tetrahydroisoquinolin-1-yl)vinyl]benzoic acid]	8620
COc1ccc(/C=C/C2NCCc3cc(OCc4ccccc4)c(OC)cc32)c(OC)c1 (stereo not shown) [AV, 6-Benzyloxy-1-[(E)-2-(2,4-dimethoxyphenyl)vinyl]-7-methoxy-1,2,3,4-tetrahydroisoquinoline]	140
COc1cc(C)c(/C=C/C2NCCc3cc(OCc4ccccc4)c(OC)cc32)cc1OCCCC(=O)O (stereo not shown) [BO, 4-[5-[(E)-2-(B-benzyloxy-7-methoxy-1,2,3,4-tetrahydroisoquinolin-1-yl)vinyl]-2-methoxy-4-methyl-phenoxy]butanoic acid]	234
COc1cc2c(cc1OCc1ccccc1)CCNC2/C=C/c1ccccc1N1CCCCC1 (stereo not shown) [DX, 6-(Benzyloxy)-7-methoxy-1-[(E)-2-[2-(piperidin-1-yl)phenyl]ethenyl]-1,2,3,4-tetrahydroisoquinoline]	4200
COc1ccc(CCC2NCCc3cc(OC)c(OC)cc32)cc1OC (stereo not shown) [Example A, 1-[2-(3,4-Dimethoxyphenyl)ethyl]-6,7-dimethoxy-1,2,3,4-tetrahydroisoquinoline]	10000
COCCCCOc1cc(OC)ccc1/C=C/C1NCCc2cc(OCc3ccccc3)c(OC)cc21 (stereo not shown) [Example AI, (E)-6-(benzyloxy)-7-methoxy-1-(4-methoxy-2-(4-methoxybutoxy)styryl)-1,2,3,4-tetrahydroisoquinoline]	1500
COc1cc2c(cc1OCc1ccccc1)CCNC2/C=C/c1cc(C)c(OC)c(C(F)(F)F)c1 (stereo not shown) [CZ, (E)-6-(benzyloxy)-7-methoxy-1-(4-methoxy-3-methyl-5-(trifluoromethyl)styryl)-1,2,3,4-tetrahydroisoquinoline]	2190
COc1cc2c(cc1OCc1ccccc1)CCNC2/C=C/c1ccc2c(c1)OCC2 (stereo not shown) [EG, 6-Benzyloxy-1-[(E)-2-(2,3-dihydrobenzofuran-6-yl)vinyl]-7-methoxy-1,2,3,4-tetrahydroisoquinoline]	900
COc1ccc(/C=C/C2NCCc3cc(OCc4ccccc4)c(OC)cc32)cc1Cn1ccnc1C (stereo not shown) [EN, 6-Benzyloxy-7-methoxy-1-[(E)-2-[4-methoxy-3-[(2-methylimidazol-1-yl)methyl]phenyl]vinyl]-1,2,3,4-tetrahydroisoquinolin]	189
COc1cc2c(cc1OCc1ccccc1)CCNC2/C=C/c1cc2c(cc1C)OCC2 (stereo not shown) [CG, 6-Benzyloxy-7-methoxy-1-[(E)-2-(6-methyl-2,3-dihydrobenzofuran-5-yl)vinyl]-1,2,3,4-tetrahydroisoquinoline]	140
